Experimental data reported in patent US6057325A, “Hexahydro-pyrido(4,3-b)indole derivatives as antipsychotic drugs” (Janssen Pharmaceutia, N.V., priority 1996, dated 2000).

How the values were obtained:
Assay type in all cases: in vivo
dopamine = assay: Combined ATN test in rats: apomorphine (APO) challenge, central dopamine antagonism; details: Rattus norvegicus, sc, subcutaneous pretreatment, dose protecting 50% of animals, central dopamine antagonistic activity
[1] = system: serotonin 5HT2 -receptors; assay: Combined ATN test in rats: tryptamine (TRY) challenge, central and peripheral serotonin antagonism; details: subcutaneous pretreatment, dose protecting 50% of animals; for TRY convulsions ED50: central serotonin antagonistic activity; for TRY hyperaemia ED50: peripheral serotonin antagonistic activity
Excerpt: The central dopamine antagonistic and serotonin antagonistic activity of the subject compounds is evidenced by the experimental data obtained in the combined apomorphine (APO), tryptamine (TRY) and norepinephrine (NOR) test in rats. Said combined apomorphine, tryptamine and norepinephrine test is described in Arch. Int. Pharmacodyn., 227, 238-253 (1977) and provides an empirical evaluation of the relative specificity with which drugs may effect particular neurotransmitter systems centrally (CNS) as well as peripherally. […] Central dopamine antagonism is evaluated by challenging rats, subcutaneously pretreated with different doses of the test compound, with apomorphine which is a dopamine agonist. Next, serotonin antagonism is evaluated by challenging the same rats, subcutaneously pretreated with different doses of the test compound, with tryptamine which is an agonist at serotonin 5HT2 -receptors. Both central and peripheral serotonin antagonism can be assessed in this test. Centrally acting serotonin antagonists are potential antipsychotic drugs, in particular when simultaneously displaying dopamine antagonism in the first part of this test. Finally, α-adrenergic antagonistic activity of the test compounds is evaluated by challenging the same rats, subcutaneously pretreated with different doses of the test compound, with norepinephrine which is an α-adrenergic agonist.
The experimental data are summarized in Table 3 and expressed as ED50 values in mg/kg body weight, which are defined as the dose at which each of the tested compounds protects 50% of the tested animals from a relevant response evoked by the above-mentioned challenging substances. Column APO lists the results of the apomorphine challenge, indicating central dopamine antagonistic activity. Column TRY convulsions and TRY hyperaemia list the results of the tryptamine challenge, indicating central and peripheral serotonin antagonistic activity respectively. Column NOR lists the results of the norepinephrine challenge, indicating α-adrenergicantagonist activity. The favourable pharmacological properties of the compounds of formula (I) lie in their potent central dopamine (column APO) and serotonin (column TRY convulsions) antagonistic activity.

α-adrenergic = assay: Combined ATN test in rats: norepinephrine (NOR) challenge, α-adrenergic antagonist activity; details: Rattus norvegicus, sc, subcutaneous pretreatment, dose protecting 50% of animals

| Structure (SMILES) | ED50 (dopamine) | TRY convulsions ED50 [1] | TRY hyperaemia ED50 [1] | ED50 (α-adrenergic) |
| --- | --- | --- | --- | --- |
| Cc1nc2scc(C)n2c(=O)c1CCN1CC[C@@H]2[C@@H](C1)c1cc(F)ccc1N2c1ccc(F)cc1 (relative stereo) [Compound 24] | 5 mg/kg | 1.25 mg/kg | ≤ 0.04 mg/kg |  |
| COc1ccc2c(c1)[C@@H]1CN(CCc3c(C)nc4ccccn4c3=O)CC[C@H]1N2 (relative stereo) [Compound 30] | ≥ 10 mg/kg | 2 mg/kg | ≤ 0.16 mg/kg |  |
| Cc1nc(NCc2ccccc2)n(C)c(=O)c1CCN1CC[C@H]2Nc3ccc(F)cc3[C@@H]2C1 (relative stereo) [Compound 31] | 1.25 mg/kg | ≥ 10 mg/kg | ≤ 0.16 mg/kg | > 10 mg/kg |
| Cc1nc2sccn2c(=O)c1CCN1CC[C@H]2Nc3ccc(F)cc3[C@@H]2C1 (racemic) [Compound 15, (±)-trans-6-[2-(8-fluoro-1,3,4,4a,5,9b-hexahydro-2H-pyrido[4,3-b]indol-2-yl)ethyl]-7-methyl-5H-thiazolo[3,2-a]pyrimidin-5-one] | 0.31 mg/kg | 0.31 mg/kg | ≤ 0.0025 mg/kg | > 10 mg/kg |
| Cc1nc2scc(C)n2c(=O)c1CCN1CC[C@H]2Nc3ccc(Cl)cc3[C@@H]2C1 (relative stereo) [Compound 27] | 0.31 mg/kg | 0.31 mg/kg | 0.005 mg/kg |  |
| Cc1nc2ccccn2c(=O)c1CCN1CC[C@H]2Nc3ccc(Cl)cc3[C@@H]2C1 (relative stereo) [Compound 28] | 0.08 mg/kg | 0.12 mg/kg | 0.005 mg/kg | > 10 mg/kg |
| Cc1nc2scc(C)n2c(=O)c1CCN1CC[C@H]2Nc3ccc(F)cc3[C@@H]2C1 (relative stereo) [Compound 16] | 0.25 mg/kg | 0.45 mg/kg | 0.015 mg/kg | > 10 mg/kg |
| Cc1nc2scc(C)n2c(=O)c1CCN1CC[C@H]2Nc3ccccc3[C@@H]2C1 (relative stereo) [Compound 12] | 1.25 mg/kg | 1.25 mg/kg | 0.02 mg/kg | > 10 mg/kg |
| Cc1nc2sccn2c(=O)c1CCN1CC[C@H]2Nc3ccc(Cl)cc3[C@@H]2C1 (relative stereo) [Compound 26] | 0.03 mg/kg | 0.02 mg/kg | 0.005 mg/kg |  |
| Cc1nc2ccccn2c(=O)c1CCN1CC[C@@H]2[C@@H](C1)c1ccccc1N2C (relative stereo) [Compound 20] | 1.25 mg/kg | 1.25 mg/kg | ≤ 0.63 mg/kg | 5 mg/kg |
| Cc1nc2ccccn2c(=O)c1CCN1CC[C@H]2Nc3ccc(F)cc3[C@@H]2C1 (relative stereo) [Compound 17] | 0.08 mg/kg | 0.5 mg/kg | ≤ 0.04 mg/kg |  |
| Cc1nc2ccccn2c(=O)c1CCN1CC[C@H]2Nc3ccccc3[C@@H]2C1 (relative stereo) [Compound 14] | 0.31 mg/kg | 1.25 mg/kg | ≤ 0.16 mg/kg |  |
| Cc1nc2sccn2c(=O)c1CCN1CC[C@@H]2[C@@H](C1)c1ccccc1N2C (relative stereo) [Compound 19] | 8 mg/kg | 1.25 mg/kg | 0.31 mg/kg | 5 mg/kg |
| Cc1nc2sccn2c(=O)c1CCN1CC[C@H]2[C@H](C1)c1cc(F)ccc1N2c1ccc(F)cc1 (relative stereo) [Compound 22] | 1.25 mg/kg | 1.25 mg/kg | 0.08 mg/kg | 0.5 mg/kg |
| Cc1nc2sccn2c(=O)c1CCN1CC[C@H]2Nc3ccccc3[C@@H]2C1 (racemic) [Compound 11, (±)-trans-6-[2-(1,3,4,4a,5,9b-hexahydro-2H-pyrido[4,3-b]indol-2-yl)ethyl]-7-methyl-5H-thiazolo[3,2-a]pyrimidin-5-one] | 0.31 mg/kg | 0.31 mg/kg | ≤ 0.04 mg/kg |  |
| Cc1nc2n(c(=O)c1CCN1CC[C@@H]3[C@@H](C1)c1cc(F)ccc1N3c1ccc(F)cc1)CCCC2 (relative stereo) [Compound 25] | 0.31 mg/kg | 0.12 mg/kg | 0.02 mg/kg |  |
| Cc1nc2n(c(=O)c1CCN1CC[C@H]3Nc4ccccc4[C@@H]3C1)CCS2 (relative stereo) [Compound 13] | 2.5 mg/kg | 5 mg/kg | ≤ 0.04 mg/kg |  |
| Cc1nc2n(c(=O)c1CCN1CC[C@@H]3[C@@H](C1)c1cc(F)ccc1N3c1ccc(F)cc1)CCS2 (racemic) [Compound 23, (±)-trans-6-[2-[8-fluoro-5-(4-fluoro-phenyl)-1,3,4,4a,5,9b-hexahydro-2H-pyrido[4,3-b]indol-2-yl]ethyl]-2,3-dihydro-7-methyl-5H-thiazolo[3,2-a]pyrimidin-5-one] | 0.12 mg/kg | 0.08 mg/kg | ≤ 0.01 mg/kg | 0.03 mg/kg |
| COc1ccc2c(c1)[C@@H]1CN(CCc3c(C)nc4sccn4c3=O)CC[C@H]1N2 (relative stereo) [Compound 29] | 5 mg/kg | 5 mg/kg | 0.02 mg/kg |  |
| Cc1nc2n(c(=O)c1CCN1CC[C@H]3Nc4ccc(F)cc4[C@@H]3C1)CCCC2 (relative stereo) [Compound 18] | 0.31 mg/kg | 2 mg/kg | 0.02 mg/kg |  |
